Test results published in patent US11202792B2, “CD99 inhibitors and their uses” (GEORGETOWN UNIVERSITY, priority 2016, dated 2021).

Columns and labels:
[1] = target: T1, recombinant human full-length CD99 (Homo sapiens, UniProt P14209); assay: SPR binding kinetics, recombinant human full-length CD99 (Biacore T200); details: full-length CD99 produced in HEK293 cells, immobilized by amine coupling
T1 construct: Purified recombinant human full-length CD99 produced in HEK293 cells was purchased from Origene; purchased Origene #TP304056; host or cells: HEK293
T1 sequence (P14209 23-185): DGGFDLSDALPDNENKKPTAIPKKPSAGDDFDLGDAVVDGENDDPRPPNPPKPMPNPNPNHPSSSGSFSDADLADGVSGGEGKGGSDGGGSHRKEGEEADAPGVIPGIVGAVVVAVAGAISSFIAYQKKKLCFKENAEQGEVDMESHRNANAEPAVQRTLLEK
Description: The initial binding screening of the NCI/DTP chemical libraries was performed on a Biacore T200 instrument at room temperature using a neutravidin-coated CM5 chip (GE Healthcare Bio-Sciences) coupled with biotinylated CD99-ECD on one flow cell at levels of ˜3,000 response units (RU). A negative control protein, Ly6k was immobilized on another flow cell of the same chip (˜11,000 RU), and the first flow cell was left empty for reference subtraction due to nonspecific binding. Analytes were diluted in HBS—P buffer [10 mmol/L HEPES, pH 7.4, 150 mmol/L NaCl, % 0.05 (v/v) surfactant P20], and were injected individually over all flow cells. The running buffer contained appropriate concentrations of DMSO in HBS—P to match the DMSO level of the samples. Kinetic studies for antibody- or compound-CD99 interactions were performed in a Biacore T200 instrument. Purified recombinant human full-length CD99 produced in HEK293 cells was purchased from Origene (Rockville, Md.) (#TP304056). The recombinant human full-length CD99 was immobilized on a CM5 sensor chip by the amine-coupling method in sodium acetate buffer, pH 4.0 (˜10,000 RU). The first flow cell was left empty for background signal subtraction. Kinetic characterization of the interactions was done by injecting increasing concentrations of analytes as indicated over CD99-captured and control surface. KD (equilibrium dissociation constant) values were obtained using BiaEvaluation software (version 1.0) (Biacore) (GE Healthcare). All kinetic experiments were conducted in HBS—P buffer, which contained 1% (v/v) DMSO in case of compounds.

ES cell lines = assay: Cell viability IC50 panel (WST-1 or MTT), ES cell lines; assay type: cell-based, human; details: for IC50: Homo sapiens, 48 h, read-out: average IC50 concentration for ES cell lines; for IC50 concentrations, ES cell lines: all ES cell lines except A673; for increased sensitivity of ES compared to non-ES cell lines: ratio of average IC50 non-ES vs ES
non-ES cell lines = assay: Cell viability IC50 panel, non-ES cell lines; assay type: cell-based; details: 48 h; highest concentration tested (10 or 30 μmol/L) used for resistant lines; unit not printed with values
Description: (§1) The plate was installed into the RTCA system, and the electrical impedance (represented as cell index) was measured every 10 min.
Therefore, two leukemia cell lines, MOLT-4 and Jurkat, were included as positive controls in this experiment.

SK-N-MC ES cells = assay: Cell viability IC50, SK-N-MC; assay type: cell-based; details: Homo sapiens
Description: as §1
(§2) To investigate the relationship between the level of CD99 expression and drug sensitivity, the endogenous expression of CD99 was determined in a panel of 9 ES and 13 non-ES cell lines. The recombinant purified CD99-ECD protein was used to generate standard curves for immunoquantification of CD99 expression by immunoblotting (FIGS. 6B and 6C).

IOR/CAR ES cells = assay: Cell viability IC50, IOR/CAR; assay type: cell-based; details: Homo sapiens
Description: as §1, §2

SAOS-2 OS cells = assay: Cell viability IC50, SAOS-2; assay type: cell-based; details: Homo sapiens
Description: as §1, §2

U-2-OS OS cells = assay: Cell viability IC50, U-2-OS; assay type: cell-based; details: Homo sapiens, U2OS
Description: as §1, §2

MG63 OS cells = assay: Cell viability IC50, MG63; assay type: cell-based; details: Homo sapiens, MG-63
Description: as §1, §2

[2] = system: RH1 rhabdomyosarcoma cells; assay: Cell viability IC50, RH1; assay type: cell-based; details: Homo sapiens, RH1 (RM)
Description: as §1, §2

[3] = system: RH4 rhabdomyosarcoma cells; assay: Cell viability IC50, RH4; assay type: cell-based; details: Homo sapiens, RH4 (RM)
Description: as §1, §2

SKES xenografts = assay: Orthotopic SKES xenograft, i.p. administration; assay type: in vivo, SCID/beige mice; details: for tumor growth: i.p.
Description: All tumor tissues were fixed in 10% neutral buffered formalin for 24 h, dehydrated through a graded series of alcohols and cleared in xylenes prior to embedding in paraffin. Embedded tissues were cut into 5 μm thick sections and stained with hematoxylin and eosin (H&E). Immunohistochemical staining was performed for CD99 and caspase 3 (cleaved). Five micron sections from formalin fixed paraffin embedded tissues were de-paraffinized with xylenes and rehydrated through a graded alcohol series. Heat induced epitope retrieval was performed by immersing the tissue sections at 98° C. for 60 min in 10 mmol/L citrate buffer (pH 6.0). Immunohistochemical staining was performed using a horseradish peroxidase labeled polymer from Agilent (Santa Clara, Calif.) (#K4001, #K4003) according to manufacturer's instructions. Briefly, slides were treated with 3% hydrogen peroxide and 10% normal goat serum for 10 min each, and exposed to primary antibodies for CD99 (Abcam, #ab8855) at a 1:100 dilution and for caspase 3 (cleaved) (Biocare (Pacheco, Calif.), #CP229A) at a 1:90 dilution in Da Vinci Green for one hour and stained on an DAKO Autostainer. Slides were exposed to the appropriate HRP labeled polymer for 30 min and DAB chromogen (Dako (Santa Clara, Calif.) for 5 min. Slides were counterstained with Hematoxylin (Fisher, Harris Modified Hematoxylin), blued in 1% ammonium hydroxide, dehydrated, and mounted with Acrymount. Consecutive sections with the primary antibody omitted were used as negative controls. The sections were evaluated in a blinded fashion by a board certified pathologist.
The antitumor activity of drugs through intraperitoneal (i.p.) administration given once daily was determined. […] The in vivo potencies of drug treatments were evaluated by event-free survival curves, where tumors that reached 1.0 cm^3 in size considered an event.

Structure (SMILES) | Kd [1] [nM] | IC50 (ES cell lines) [nM] | IC50 concentrations, ES cell lines (ES cell lines) | increased sensitivity of ES compared to non-ES cell lines (ES cell lines) [fold] | IC50 (non-ES cell lines) [nM] | IC50 (SK-N-MC ES cells) [nM] | IC50 (IOR/CAR ES cells) [nM] | IC50 (SAOS-2 OS cells) [nM] | IC50 (U-2-OS OS cells) [nM] | IC50 (MG63 OS cells) [nM] | IC50 [2] [nM] | IC50 [3] [nM] | mitotic figures per field (SKES xenografts; H&E, 200-fold magnification) | apoptotic cells (SKES xenografts; H&E, confirmed by caspase-3 immunohistochemistry) | event-free survival (SKES xenografts; i.p. once daily, 20 mg/kg both, vs vehicle) | tumor growth (SKES xenografts; 20 mg/kg both)
Nc1nc(Cl)nc2c1ncn2[C@@H]1O[C@H](CO)[C@@H](O)[C@@H]1F [clofarabine] | 5300 ± 3200 | 440 ± 440 | submicromolar | 31 | ≥ 13700 | 170 | 290 | > 30000 | > 30000 | > 10000 | 200 | > 10000 | ≤ 3 | significant increase | significantly improved | significant inhibition of tumor growth
Nc1nc(Cl)nc2c1ncn2[C@H]1C[C@H](O)[C@@H](CO)O1 [cladribine] | 3800 ± 3300 | 1090 ± 1850 | submicromolar | 18 | ≥ 20000 | 680 | 660 | > 30000 | > 30000 | > 30000 | 900 | > 30000 |  |  |  | less effective
